In patent US8354447B2, “mGLU receptors antagonists for treating disorders associated with mGLU receptors including addiction and depression” (The Scripps Research Institute, priority 2002, dated 2013):

Legend:
[1] = system: male Wistar rats; test: Somatic signs of the nicotine withdrawal syndrome; type: in vivo, rat; settings: six hours after removal of the nicotine-containing minipumps
Description: Rats were placed individually in transparent plastic cylindrical containers (30×38 cm) in which they could move freely. Subjects were habituated to the containers for 10 min each day over 3 days before the first test session. During the test sessions the rats were observed blindly by an experienced observer for 10 min and the frequency of the following signs was recorded based on a checklist of nicotine abstinence signs (Hildebrand et al. 1999; Watkins et al. 2000; Malin 2001): body shakes, chews, cheek tremors, escape attempts, eye blinks, foot licks, gasps, genital licks, head shakes, ptosis, scratches, teeth chattering, writhes and yawns. Multiple successive counts of any sign required a distinct pause between episodes. Ptosis, if present continuously, was only counted once per minute. For statistical analyses, the total number of somatic signs was defined as the sum of individual occurrences of the above mentioned withdrawal signs. Further, the categories of “abdominal constrictions” included gasps and writhes; “facial fasciculation” included cheek tremors, chews, and teeth chattering; and “miscellaneous other signs” included shakes, escape attempts, licks, scratches, and yawns.
Separate drug-naive rats were prepared with osmotic minipumps containing nicotine (3.16 mg/kg per day for 7 days) dissolved in saline. […] Further, this nicotine dose was selected to allow direct comparison of the effects of bupropion on somatic signs (present experiment 4) and on reward threshold elevations (experiment 3 described above) observed during nicotine withdrawal. To induce the somatic signs of nicotine withdrawal the minipumps were removed 6 days and 18 h after implantation. The behavioral observations were conducted 6, 12 and 24 h after the removal of the minipumps. The rats were injected with bupropion (0, 5, 10, 20, 40 mg/kg, IP; n=6-8), 30 min prior to the 12-h time point. The selection of the time points was based on the time-course of the expression of the somatic signs after the termination of nicotine exposure (Epping-Jordan et al. 1998; Harrison et al. 2001a; Semenova and Markou 2003; Skjei and Markou 2003).

[2] = system: male Wistar rats; test: ICSS thresholds during and after withdrawal from chronic nicotine, bupropion; type: in vivo, rat
Excerpt: Trials began with an electrical stimulus followed by a 7.5-s response window within which the animal could make a response to receive a second contingent stimulus identical to the initial noncontingent stimulus. A response during this 7.5-s window was considered a positive response, whereas the lack of a response was considered a negative response. Additional responses during a 2-s period immediately following a positive response had no consequence. The intertrial interval (ITI) that followed either a positive response or the end of the response window (in the case of a negative response) ranged from 7.5 to 12.5 s with an average duration of 10 s. […] Subjects then were tested on a current-threshold procedure in which stimulus intensities were varied during four alternating descending and ascending series with a step size of […]. Blocks of three trials were offered at each current step with the starting current of the first descending series set at […] above the subjects' individual baseline thresholds estimated at the end of preliminary training. […] An ascending series was terminated after two consecutive blocks of trials during which the animal made positive responses on at least two out of the three trials or after 15 successive increments were presented. The mean of the four current thresholds from the alternating series was defined as the subject's ICSS threshold for that session. A series was terminated after either 15 stimulus increments (or decrements) had occurred, or after the determination of the threshold for the series (see below). Each test session typically lasted 30 min.
Naive animals were prepared with osmotic minipumps containing either an individualized nicotine solution (3.16 mg/kg per day, free base) or saline. […] After implantation of the minipumps, thresholds were assessed daily thereafter to assess the effects of chronic nicotine exposure on reward thresholds. Seven days (exactly seven 24-h periods) after pump insertion, the pumps were removed in order to precipitate the nicotine withdrawal syndrome. ICSS thresholds were measured 12, 18, 24, 36, 48 and 72 h after pump removal. Animals were injected with bupropion (0, 10, 20, 40 mg/kg IP; n=8-11) 30 min prior to the 18-h time point.

[3] = system: drug-naïve rats; settings: cited from earlier work
[4] = system: Wistar rats; test: Cocaine-induced lowering of ICSS thresholds; type: in vivo, rat
[5] = system: Wistar rats; test: Cocaine, nicotine and food responding under a progressive ratio schedule; type: in vivo, rat
Excerpt: Under a fixed ratio schedule of reinforcement, as described above, an animal responds a ‘fixed’ number of times on an active lever to obtain a drug infusion. Fixed ratio (FR) schedules of reinforcement provide important information on whether a drug is reinforcing. […] By determining how hard an animal is willing to work for a drug, while limiting total intake, the PR schedule allows better separation of motivation for drug consumption from possible satiating effects of cumulative drug doses (Stafford et al. 1998). Such characteristics result in theoretically different interpretations of the factors controlling drug-seeking behavior on a PR compared with a FR. […] After acquisition of cocaine or nicotine self-administration under an FR, as described above, rats were switched to a PR schedule of reinforcement in which the following sequence of level presses was required to receive each subsequent infusion of nicotine or cocaine: 5, 10, 17, 24, 32, 42, 56, 73, 95, 124, 161, 208, etc. Rats were injected with MPEP (0, 1, 3 or 9 mg/kg) 30 min prior to each PR session. All PR sessions lasted for 3 h. All subjects reached breaking-points during the 3 hour session.

[6] = system: Wistar rats; test: Nicotine self-administration under a fixed ratio schedule (LY341495, LY341495 and MPEP); settings: MPEP 1 mg/kg alone
[7] = MPEP 3 mg/kg, 10, 40, 70 and 100 min

Row | Compound | total somatic signs of abstinence [1] | day of maximal threshold-lowering effect ([2]; nicotine via minipumps) [days] | brain reward threshold ([2]; nicotine via minipumps 3.16 mg/kg per day for 7 days) | time points with significant elevation in reward thresholds post-withdrawal ([2]; nicotine withdrawal, saline-injected animals) | brain reward thresholds ([2]; withdrawal from chronic nicotine administration) | reward-lowering effect of nicotine in a brain reward stimulation procedure ([3]; 0.25 mg/kg nicotine (Harrison et al. 2002)) | dose that elevated ICSS thresholds in drug-naïve rats ([3]; previous studies (Harrison et al., 2002; Macey et al., 2001)) [mg/kg] | duration of cocaine-induced lowering of ICSS thresholds ([4]; MPEP 3 mg/kg) | ICSS Thresholds [4, 7] | ICSS response Latencies [4, 7] | ICSS Thresholds ([4]; MPEP 9 mg/kg before cocaine 10 mg/kg, compared to cocaine-treated rats that received vehicle) | ICSS Thresholds ([4]; MPEP 9 mg/kg before cocaine 10 mg/kg, compared to saline-treated rats pretreated with vehicle) | magnitude of cocaine-induced lowering of ICSS thresholds ([4]; MPEP 1-9 mg/kg) | ICSS Thresholds ([4]; MPEP alone, 6 and 9 mg/kg significant) | ICSS response Latencies ([4]; MPEP, only the highest dose (9 mg/kg)) | responding for food ([5]; MPEP 1-9 mg/kg, PR schedule) | responding under a progressive ratio schedule (motivation) ([5]; MPEP 1-9 mg/kg, cocaine, nicotine, food) | break point ([5]; PR schedule, cocaine and nicotine) | cocaine or nicotine self-administration [6]
1 | CN1CCCC1c1cccnc1 (single isomer, unassigned; (-)) [nicotine, (−)-1-methyl-2-(3-pyridyl) pyrrolidine] | significant increase in the amount of total somatic signs of abstinence | 3 | small yet significant reduction in brain reward threshold | up to 36 h | significantly elevated brain reward thresholds | – | – | – | – | – | – | – | – | – | – | – | – | – | –
2 | Cc1cccc(C#Cc2ccccc2)n1 [MPEP, 2-methyl-6-(phenylethynyl)-pyridine] | – | – | – | – | – | had no effect on the reward-lowering effect of 0.25 mg/kg nicotine | ≥ 3 | did not attenuate the duration of time that cocaine lowered ICSS thresholds | had no effect on ICSS thresholds at any time-point | had no effect on response latencies at any time-point | significantly elevated in cocaine-treated rats that previously received MPEP (9 mg/kg) compared to cocaine-treated rats that received vehicle injection | still significantly lowered compared to saline-treated rats pretreated with vehicle | did not attenuate the magnitude of the lowering in ICSS thresholds observed after systemic cocaine administration | significantly elevated ICSS thresholds | significantly increased response latencies | no statistically significant effect on responding for food | decreased the motivation of rats to obtain cocaine or nicotine without affecting their motivation for food | significantly lowered the break point for cocaine and nicotine | has no effects on cocaine or nicotine self-administration
